Strand notation (5' to 3'): a small letter for the sugar, then the base; units joined by * are phosphorothioate-linked, units joined directly phosphodiester-linked; [ ] holds rarer units or linkages, { } end groups; capitals alone tell only the bases. e = 2'-O-(2-methoxyethyl) (MOE); k = constrained ethyl (cEt); [5mC] = 5-methylcytosine; d = 2'-deoxy (DNA)
The substances below were run on human PKK mRNA (assay: Antisense inhibition of human PKK mRNA in HepaRG cells, 1,000 nM, MOE/deoxy/cEt oligonucleotides (Example 3)). Settings: Table 27; HepaRG cells, 1,000 nM antisense oligonucleotide; human PKK mRNA.
Format: cell-based
Procedure, shortened: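 Readout is percent PKK mRNA reduction against untreated controls, by real-time PCR (RTS3454) adjusted for total RNA via RIBOGREEN. Oligonucleotides, phosphorothioate gapmers of 16 nucleosides with cEt, MOE and deoxy sugars, were delivered at 1,000 nM by electroporation to 20,000 HepaRG cells/well for roughly 24 h.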

Row | Substance | % inhibition
1 | 548309 (eA*eG*kA*d[5mC]*dA*dG*dT*dT*dG*dG*dT*dG*dG*kT*kT*eT; antisense) [compound 548309] | 41%
2 | 548310 (eG*eA*kG*dG*dA*dG*dT*dT*dG*dG*dT*dT*dT*kA*kG*eT; antisense) [compound 548310] | 0%
3 | 548311 (eT*eG*kA*d[5mC]*d[5mC]*dA*d[5mC]*d[5mC]*dT*d[5mC]*dT*d[5mC]*dG*kG*kG*eT; antisense) [compound 548311] | 10%
4 | 548312 (eA*eT*kT*dT*dG*dG*d[5mC]*d[5mC]*d[5mC]*dT*dG*dA*dG*k[5mC]*k[5mC]*e[5mC]; antisense) [compound 548312] | 0%
5 | 548313 (eG*e[5mC]*k[5mC]*dT*dT*dT*dG*dA*dG*dG*dG*dA*dG*kT*kG*eG; antisense) [compound 548313] | 35%
6 | 548314 (eA*e[5mC]*kA*dA*d[5mC]*d[5mC]*dT*dG*dT*d[5mC]*d[5mC]*dA*dT*kT*k[5mC]*e[5mC]; antisense) [compound 548314] | 43%
7 | 548315 (eG*eT*kT*dG*dT*d[5mC]*dA*dA*d[5mC]*dT*dG*dG*dG*kA*k[5mC]*e[5mC]; antisense) [compound 548315] | 14%
8 | 548316 (e[5mC]*eT*kG*dT*dT*d[5mC]*dA*dG*dG*dT*dA*dG*d[5mC]*kA*k[5mC]*eA; antisense) [compound 548316] | 64%
9 | 548317 (e[5mC]*e[5mC]*kG*dG*dG*dA*dA*dA*dG*dA*d[5mC]*dT*dG*kT*k[5mC]*eT; antisense) [compound 548317] | 42%
10 | 548318 (eA*e[5mC]*kT*dG*d[5mC]*dA*d[5mC]*d[5mC]*d[5mC]*d[5mC]*dA*d[5mC]*dA*kT*kA*eT; antisense) [compound 548318] | 18%
11 | 548319 (e[5mC]*e[5mC]*kT*d[5mC]*dA*dT*d[5mC]*dT*d[5mC]*dA*dG*dT*dA*kT*kG*eA; antisense) [compound 548319] | 26%
12 | 548320 (eG*e[5mC]*kA*d[5mC]*dA*d[5mC]*dA*dG*dA*d[5mC]*dT*dT*dG*k[5mC]*k[5mC]*e[5mC]; antisense) [compound 548320] | 0%
13 | 548321 (e[5mC]*eT*kG*d[5mC]*dA*dT*d[5mC]*dT*dG*dG*dA*d[5mC]*dT*kA*kT*eG; antisense) [compound 548321] | 38%
14 | 548322 (eA*eG*kG*dG*dA*dA*dA*dT*dT*dA*dG*dA*dG*kG*k[5mC]*eA; antisense) [compound 548322] | 38%
15 | 548323 (e[5mC]*eT*kG*dT*dT*dG*d[5mC]*d[5mC]*dT*dG*dA*d[5mC]*dA*kT*kG*e[5mC]; antisense) [compound 548323] | 43%
16 | 548324 (eA*e[5mC]*kA*dT*dA*dA*dA*dT*dT*d[5mC]*d[5mC]*d[5mC]*d[5mC]*kA*k[5mC]*eA; antisense) [compound 548324] | 29%
17 | 548325 (e[5mC]*e[5mC]*k[5mC]*dA*d[5mC]*dT*dG*dA*d[5mC]*dT*dG*dA*d[5mC]*kT*kA*e[5mC]; antisense) [compound 548325] | 27%
18 | 548326 (eT*e[5mC]*k[5mC]*dT*dG*dT*dG*dA*d[5mC]*dA*dG*dA*dA*k[5mC]*k[5mC]*eA; antisense) [compound 548326] | 27%
19 | 548327 (e[5mC]*eT*kA*d[5mC]*dA*d[5mC]*d[5mC]*dT*dT*dT*d[5mC]*dT*dG*k[5mC]*kA*e[5mC]; antisense) [compound 548327] | 6%

Row | Substance | % inhibition
20 | 548328 (antisense eG*eG*kT*d[5mC]*d[5mC]*dT*dT*dG*dA*dA*d[5mC]*d[5mC]*d[5mC]*k[5mC]*kG*eT) [compound 548328] | 68%
21 | 548329 (antisense eA*eG*k[5mC]*dA*dG*dA*dT*d[5mC]*dT*dG*dG*dG*dT*kT*kG*eT) [compound 548329] | 59%
22 | 548330 (antisense eG*eA*k[5mC]*dT*dA*dG*d[5mC]*dT*dT*d[5mC]*dT*dA*d[5mC]*kT*kA*e[5mC]) [compound 548330] | 34%
23 | 548331 (antisense eA*e[5mC]*kA*dA*dT*d[5mC]*d[5mC]*d[5mC]*dT*dT*dA*dG*d[5mC]*k[5mC]*k[5mC]*eA) [compound 548331] | 73%
24 | 548332 (antisense eG*eA*kT*dG*dA*dA*dA*dT*dG*dT*dG*d[5mC]*dA*k[5mC]*k[5mC]*eT) [compound 548332] | 46%
25 | 548333 (antisense eG*eA*k[5mC]*dT*dG*dT*dG*d[5mC]*dT*dA*dT*d[5mC]*d[5mC]*kG*k[5mC]*eT) [compound 548333] | 58%
26 | 548334 (antisense eG*e[5mC]*kT*d[5mC]*dA*d[5mC]*dT*dA*dT*dA*dG*dG*d[5mC]*k[5mC]*k[5mC]*e[5mC]) [compound 548334] | 69%
27 | 548335 (antisense eT*eA*kG*d[5mC]*dA*dT*d[5mC]*dA*dT*dG*d[5mC]*d[5mC]*dA*k[5mC]*kA*eG) [compound 548335] | 51%
28 | 548336 (antisense eG*e[5mC]*kA*d[5mC]*dA*dT*dT*dA*dG*dG*dA*dG*dG*kT*kA*eG) [compound 548336] | 1%
29 | 548337 (antisense eT*eA*k[5mC]*d[5mC]*dG*d[5mC]*dT*dG*dG*dG*dT*dG*d[5mC]*kG*kG*eT) [compound 548337] | 10%
30 | 548339 (antisense eA*e[5mC]*kA*dT*dG*dT*dG*dG*dG*dA*dT*d[5mC]*dA*kG*kA*eG) [compound 548339] | 37%
31 | 548340 (antisense eG*eA*kT*dG*dA*dT*d[5mC]*d[5mC]*dT*d[5mC]*dA*d[5mC]*dA*kT*kA*e[5mC]) [compound 548340] | 35%
32 | 548341 (antisense eT*eA*kG*dA*dA*d[5mC]*d[5mC]*dT*dT*d[5mC]*d[5mC]*dT*d[5mC]*k[5mC]*kA*e[5mC]) [compound 548341] | 30%
33 | 548342 (antisense eG*eG*kA*dA*dG*dA*d[5mC]*dT*dT*d[5mC]*d[5mC]*d[5mC]*dT*k[5mC]*kT*eG) [compound 548342] | 0%
34 | 548344 (antisense eG*eG*k[5mC]*dA*dA*d[5mC]*dT*dA*dT*dG*dT*dT*d[5mC]*kT*k[5mC]*eA) [compound 548344] | 76%
35 | 548345 (antisense e[5mC]*eT*kA*dA*d[5mC]*dT*d[5mC]*d[5mC]*dA*dT*d[5mC]*dA*d[5mC]*kT*kG*e[5mC]) [compound 548345] | 55%
36 | 548346 (antisense eT*e[5mC]*k[5mC]*d[5mC]*d[5mC]*dA*dA*dT*dA*d[5mC]*dT*dT*dG*k[5mC]*kT*eG) [compound 548346] | 35%
37 | 548347 (antisense eG*e[5mC]*kT*dG*dT*dT*d[5mC]*dT*dA*dA*dG*d[5mC]*dG*kA*kG*eA) [compound 548347] | 31%

From patent US11840686B2, “Modulation of prekallikrein (PKK) expression” (Ionis Pharmaceuticals, Inc., priority 2013, dated 2023)
